These results are taken from patent US20110173718A1, “HERBICIDE TOLERANT PLANTS” (SYNGENTA CROP PROTECTION, INC., priority 2008, published 2011).

Assay [1] relates to Arabidopsis HST transgenic tobacco plants. The assay can be described thus: Glasshouse spray test, Arabidopsis HST transgenic tobacco. The conditions noted are these: 500 g/ha, 14 DAT. Format: in vivo. An excerpt: For example the Arabidopsis HST SEQ ID # 11 is cloned behind a double 35s CMV promoter sequence and a TMV translational enhancer sequence and in front of the 3′ terminator from the nos gene. This expression cassette is ligated into pMJB1 (described in WO98/20144) and then into pBIN19 and then transformed into Agrobacterium tuniqfaciens strains LBA4404 prior to plant transformation.
For example, the full length Arabidopsis HST seq ID # 11 is fused to the TMV translational enhancer sequence (SEQ ID #33) by overlapping PCR and, at the same time, 5′ XhoI site and a 3′KpnI site are added by PCR. Site-directed mutagenesis is performed to remove an internal XhoI site. The TMV/HPPD fusion is removed from the pBIN19 by digestion with XhoI/KpnI and is replaced by the TMV/HST fusion (SEQ ID #34). The TMV/HST fusion is now cloned behind a double 35s promoter and in front of the 3′ terminator from the nos gene. Again the modified pBIN19 vector (‘pBinAT HST’) is then transformed into Agrobacterium tumefaciens strain LBA4404.
A master plate of Agrobacterium tumefaciens containing the binary vector pBinAT HST (described above) or analogous binary vector comprising a different HST is used to inoculate 10 ml LB containing 100 mg/1 Rifampicin plus 50 mg/1 Kanamycin using a single bacterial colony. This is incubated overnight at 28° C. shaking at 200 rpm. This entire overnight culture is used to inoculate a 50 ml volume of LA (plus antibiotics). Again this is cultured overnight at 28° C. shaking at 200 rpm. The Agrobacterium cells are pelleted by centrifuging at 3000 rpm for 15 minutes then resuspended in MS medium with 30 g/1 sucrose, pH 5.9 to an OD ([…])=0.6. This suspension is dispensed in 25 ml aliquots into petri dishes.
Clonal micro-propagated tobacco shoot cultures are used to excise young (not yet fully expanded) leaves. The mid rib and outer leaf margins are removed and discarded, the remaining lamina is cut into 1 cm squares. These are transferred to the Agrobacterium suspension for 20 minutes. Explants are then removed, dabbed on sterile filter paper to remove excess suspension then transferred to NBM medium (MS medium, 30 g/1 sucrose, 1 mg/1 BAP, 0.1 mg/1 NAA, pH 5.9, solidified with 8 g/1 Plantagar), with the abaxial surface of each explant in contact with the medium. Approximately 7 explants are transferred per plate, which are then sealed then maintained in a lit incubator at 25° C., 16 hour photoperiod for 3 days.
Explants are then transferred to NBM medium containing 100 mg/1 Kanamycin plus antibiotics to prevent further growth of Agrobacterium (200 mg/1 timentin with 250 mg/1 carbenicillin). Further subculture on to this same medium is then performed every 2 weeks.
As shoots start to regenerate from the callusing leaf explants these are removed to Shoot elongation medium (MS medium, 30 g/1 sucrose, 8 g/1 Plantagar, 100 mg/1 Kanamycin, 200 mg/1 timentin, 250 mg/1 carbenicillin, pH 5.9). Stable transgenic plants readily root within 2 weeks. To provide multiple plants per event to ultimately allow more than one herbicide test per transgenic plant all rooting shoots are micropropagated to generate 3 or more rooted clones.
Putative transgenic plants that are rooting and show vigorous shoot growth on the medium incorporating Kanamycin are analysed by PCR using primers that amplified a 500 bp fragment within the Arabidopsis HST transgene.
Rooted transgenic T0 plantlets are transferred from agar and potted into 50% peat, 50% John Innes soil no 3 or, for example, MetroMix® 380 soil (Sun Gro Horticulture, Bellevue, Wash.) with slow-release fertilizer in 3 inch round or 4 inch square pots and left regularly watered to establish for 8-12 d in the glass house. Glass house conditions are about 24-27° C. day; 18-21° C. night and approximately a 14 h (or longer in UK summer) photoperiod. Humidity is ˜65% and light levels up to 2000 μmol/m^2 at bench level. […]

Assay [2] deals with wild-type (WT) Samsun tobacco. The assay can be described thus: Glasshouse spray test, wild-type tobacco. Type of assay: in vivo. The conditions noted are these: 500 g/ha; 14 DAT; WT control, reps. On the procedure: Rooted transgenic T0 plantlets are transferred from agar and potted into 50% peat, 50% John Innes soil no 3 or, for example, MetroMix® 380 soil (Sun Gro Horticulture, Bellevue, Wash.) with slow-release fertilizer in 3 inch round or 4 inch square pots and left regularly watered to establish for 8-12 d in the glass house. Glass house conditions are about 24-27° C. day; 18-21° C. night and approximately a 14 h (or longer in UK summer) photoperiod. Humidity is ˜65% and light levels up to 2000 μmol/m^2 at bench level. Once new tissue emerges and plants they have reached the 2-4 leaf stage some of the clones from each event are sprayed with test chemicals dissolved in water with 0.2-0.25% X-77 surfactant and sprayed from a boom on a suitable track sprayer moving at 2 mph in a DeVries spray chamber with the nozzle about 2 inches from the plant tops. Spray volume is suitably 25 gallons per acre or, for example, […].
Test chemicals are, for example, compound 2.3 at 500 g/ha. At the same time that transgenic plants are sprayed so too are w/t Samsun tobacco plants grown from seed as well as non-transgenic plants regenerated from tissue culture and non-transgenic tissue culture escapes. Damage is assessed versus unsprayed control plants of like size and development.
6 Seed from w/t Samsun tobacco and 8 T1 seed from events B8 and G9 are also planted out in 3 inch pots, grown on for 7 to 12 d and then, as described in the foregoing examples, the plantlets spray tested for resistance to various chemicals and assessed at 14 DAT. Chemicals are formulated in 0.2% X77 and sprayed at a spray volume of 200 l/ha.
Seed of wild-type tobacco plants, C2 tobacco plants and of the T1 progeny of a further Arabidopsis-HST expressing tobacco line, D2 were planted out in 3 inch pots, grown on, sprayed with compounds 1.1, 2.30 and 3.6 at the rates shown in table 5. Percent damage scores were assessed at 7 DAT. Aside from the presumptive non-transgenic segregants the D2 line containing the Arabidopis HST expression construct offered the highest level of tolerance to the two HST herbicides with the Psuedomonas HPPD, C2 line, offering only marginal tolerance under the conditions of this test.
Single copy events amongst the T1 plant lines are identified by their 3:1 segregation ratio (wrt kanamycin and or herbicide) and by quantitative RT-PCR. Seed from the thus selected T1 tobacco (var Samsun) lines are sown in 3 inch diameter pots containing 50% peat, 50% John Innes soil no 3. After growth to the 3 leaf stage, plants are sprayed, as described above, in order to test for herbicide tolerance relative to like-treated non-transgenic tobacco plants.
Control tobacco plants and transgenic T1 plants expressing either the Pseudomonas or the wheat HPPD gene are sprayed at 37, 111, 333 and 1000 g/ha rates of HST inhibitors and, for example, compound 2.3.
Plants are assessed and scored for % damage at 16 DAT.

The target of another assay is T1, Chlamydomonas HST (Chlamydomonas reinhardtii, UniProt A1JHN0).
T1 construct: GST (N); made in house; host or cells: E. coli (BL21A1 / BL21DE3), membrane fraction
T1 sequence (A1JHN0 51-370): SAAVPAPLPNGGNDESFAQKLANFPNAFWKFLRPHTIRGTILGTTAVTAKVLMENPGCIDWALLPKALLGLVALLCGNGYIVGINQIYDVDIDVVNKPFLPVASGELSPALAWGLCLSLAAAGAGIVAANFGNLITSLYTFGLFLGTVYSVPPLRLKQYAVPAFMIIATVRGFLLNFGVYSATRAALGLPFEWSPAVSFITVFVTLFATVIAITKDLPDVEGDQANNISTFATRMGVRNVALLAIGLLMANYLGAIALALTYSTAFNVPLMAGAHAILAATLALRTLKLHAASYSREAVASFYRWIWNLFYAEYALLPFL
The assay can be described thus: HST assay (TLC, MFBQ formed), recombinant Chlamydomonas HST in E. coli membranes. Type of assay: biochemical. The conditions noted are these: TLC, estimated amount of MFBQ formed, relative to controls. On the procedure:
Alternatively, Arabidopsis and Chlamydomonas mature HST coding sequences are cloned as GST N-terminal fusion enzymes and expressed in E. coli.
E. coli. BL21A1 cells expressing mature Arabidopsis or Chlamydonionas HST as a GST N-terminal fusion proteins are grown, harvested, broken and membrane fractions expressing HST produced.
For example, 1 ng of recombinant DNA is used to transform BL21DE3 cells to obtain a plateful of individual colonies. One of these colonies is picked and used to inoculate an overnight culture of 100 ml of Luria Broth (LB) supplemented with 50 ug/ml of kanamycin at final concentration, grown at 37° C. with shaking at 220 rpm. Next morning, 10 mls of the overnight culture is used to inoculate 11 of fresh sterile LB supplemented with 50 ug/ml of kanamycin at final concentration, grown at 37° C. with shaking at 220 rpm until the OD reached 0.6 at 600 nm, induced with the addition of 0.1 mM IPTG and left to induce at 15° C. overnight. The cells are harvested by centrifugation at 4600 rpm for 10 min at 4° C. and the pellet stored at −80° C. […] E. coli cell pellet is then resuspended in 25 ml of 50 mM Tris, pH 7.5 supplemented with Roche EDTA-free protease inhibitor tablet (one tablet in 200 mls of buffer). 10 ml of cells are lysed by sonication on ice. The resultant lysed cells are centrifuged at 3000 g for 10 min to pellet the cell nuclei/debris etc. 10 mls of supernatant is aspirated and centrifuged at 150,000 g for 60 min at 4° C. The pellet containing the membranes is resuspended in 2 ml of the above buffer. These samples are stored as 100 ul aliquots at −80° C., after being diluted with addition of glycerol to 50% v/v.
Prenyltransferase (HST) activities are measured by determining the prenylation rates of [U—^14C]homogentisate using farnesyl diphosphate (FDP) as prenyl donor. ^14C homogentisate is prepared from ^14C tyrosine using L amino acid oxidase and HPPD. For inhibitor testing, compounds are dissolved in dimethylsulfoxide (DMSO). DMSO added at up to 2% v/v has no effect on assays. Control assays contain DMSO at the same concentration as in inhibitor containing assays.
The recombinant Chlamydomonas HST expressed in E. coli membranes is assayed in standard reaction mixtures with 200 μM FDP and 100 μM ^14C-homogentisate (40 dpm/pmol) in 50 mM Tricine-NaOH pH 8.5, 20 mM MgCl2. Assays are started with the addition of enzyme and run for ˜20 min at 28° C.
Recombinant Arabidopsis and Rice HSTs are expressed in insect cells. Assays are run as for Chlamydomonas HST except that assay temperature is 27° C. Assays are stopped with 300 ul of solvent mix (1:2, Chloroform:Methanol) and 100 ul of 0.5% NaCl, agitated/mixed and spun at 13,000 rpm in a benchtop eppendorf centrifuge for 5 minutes. 80 ul of the lower phase extract is loaded onto a TLC plate (silica Gel 60, 20 cm×20 cm) FLA3000 system and run for 35 minutes in dichloromethane. The radioactivity is quantified using a Fuji Phosphoimager and band intensity integrated as quantitative measure of product amount. The bands corresponding to oxidised and reduced 2-methyl-6-farnesyl-1,4-benzoquinol (MFBQ) are identified and the total of the two (oxidised and reduced) band intensities is calculated in order to estimate the total amount of MFBQ product formation. Specific activities of 8 pmol MFBQ min^−1 mg^−1 protein (23 pmol) and 7 pmol MFBQ min^−1 mg^−1 protein (14 pmol) are, for example, estimated for the GST-fusion truncated Arabidopsis HST gene (SEQ ID # 3) expressed in membranes from insect cells 4 days and 5 days after transfection respectively. Similar results are noted from past literature on E. coli expressed Arabidopsis HST. Activity from the insect cell expressed GST-fusion truncated rice HST (SEQ ID# 4) is similar. Expression of the non-truncated HST coding sequences as GST fusions also gives HST activity. […]

With `CCNc1nc(Cl)nc(NC(C)C)n1` [Atrazine, reference compound], the herbicide % damage in assay [1] (T1 progeny of line B8, reps) turned out to be 100%; in assay [1] (T1 progeny of line G9-2, reps), 100%; in assay [2] it was 100%.
For `CN1CC(c2c(F)ccc(F)c2Cl)=C(O)c2ncccc21` [Compound 4.1], at Chlamydomonas HST, the “Chlamydomonas. HST % I at 10 ppm” value is 0% and the “Chlamydomonas. HST % I at 100 ppm” value is 0%.
In the case of `Nc1nc[nH]n1` [Amitrole, reference compound], at Chlamydomonas HST, the “Chlamydomonas. HST % I at 10 ppm” value is reported as 0% and the “Chlamydomonas. HST % I at 100 ppm” value was 0%.
For the compound `O=c1[nH]c2nccnc2c(O)c1-c1c(F)ccc(F)c1Cl` [Compound 2.7], on Chlamydomonas HST, the “Chlamydomonas. HST % I at 10 ppm” value was 5% and the “Chlamydomonas. HST % I at 100 ppm” value is given as 20%.
For `Cc1cc(C)c(-c2c(O)c3nccnc3n(C)c2=O)c(C)c1` [Compound 2.2], at Chlamydomonas HST, the “Chlamydomonas. HST % I at 10 ppm” value is 70% and the “Chlamydomonas. HST % I at 100 ppm” value is listed as 95%.
The matching figures for `O=c1[nH]c2nccnc2c(O)c1-c1ccccc1OC(F)(F)F` [Compound 2.6]: 5% and 20%.
For `O=c1[nH]c2nccnc2c(O)c1-c1c(F)ccc(Br)c1Cl` [Compound 2.1], in that order: 10% and 40%.
